Changes are numbered by the printed parent chain.

Results on 2 substances are retold here after article PMC10216478, “Development of a Non-Peptide Angiotensin II Type 1 Receptor Ligand by Structural Modification of Olmesartan as a Biased Agonist” (Biomedicines, 2023).

The test system of experiment [1] is human coronary artery smooth muscle cells. Details: method as in PMID 15785012. The settings on record: as well as a stably expressed AT1 receptor cell line; cited from earlier work.
A further experiment relates to AT1 receptor. Details: method as in PMID 15785012. The settings on record: cited from earlier work.
The target of experiment [2] is T1, AT1 Q257A receptor (Rattus norvegicus, UniProt P25095, Q257A).
T1 construct: expressed in transfected cells; host or cells: COS7
T1 sequence (P25095 1-359 Q257A): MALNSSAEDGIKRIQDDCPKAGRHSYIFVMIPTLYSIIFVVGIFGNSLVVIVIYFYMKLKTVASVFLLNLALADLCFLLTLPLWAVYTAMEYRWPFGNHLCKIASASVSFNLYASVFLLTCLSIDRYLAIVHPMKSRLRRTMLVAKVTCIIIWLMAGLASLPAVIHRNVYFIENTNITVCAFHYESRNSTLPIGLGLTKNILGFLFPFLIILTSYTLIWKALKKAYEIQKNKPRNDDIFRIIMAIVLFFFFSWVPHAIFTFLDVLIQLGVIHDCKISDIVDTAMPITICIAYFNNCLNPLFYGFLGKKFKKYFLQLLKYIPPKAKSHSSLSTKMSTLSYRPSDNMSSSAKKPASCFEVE
Description: IP production assay in COS7 cells expressing AT1-Q257A receptor. It counts as cell-based. The settings on record: 1 µM ligands or 0.1 µM Ang II, 30 min, n = 5, vs. (-). As to the method:
(§1) The synthetic rat AT1 receptor gene, which was cloned in the shuttle expression vector pMT-2, was used for expression and mutagenesis, as described previously. […] In the experiments, cells were grown without a cell-growth supplement. To express the AT1 receptor protein, 10 µg of purified plasmid DNA per 10^7 cells was used in the transfection. Wild-type and mutated AT1 receptors were transiently transfected into cells using Lipofectamine 2000 liposomal reagent (Roche Applied Science, Penzberg, Germany). Cells were plated and grown and were 70–90% confluent at the time of transfection. We incubated plasmid DNA (10 µg)–lipid (10 µL) complexes for 5 min at room temperature and added and incubated the complexes with cells for 24 h. We then analyzed the parameters in transfected cells. […] Transfected cells that had been cultured for 48–72 h were harvested. Cell membranes were prepared using the nitrogen Parr bomb disruption or freeze–thaw methods.
(§2) Ligand (such as agonist or antagonist)-induced IP production through the AT1 receptor in transfected COS7 cells transiently expressing the AT1 receptor was measured to evaluate cell signaling as a second messenger for controlling blood pressure, since the increases in the intracellular Ca^2+ concentration were the result of IP accumulation, which indicated vasoconstriction. As a surrogate model with higher levels of AT1 receptor expression, COS7 cells are suitable for IP measurement because it is easy to detect differences in IP production. Cells were labeled for 24 h with [^3H]-myoinositol at 37 °C in DMEM containing 10% FBS. Next, the cells were washed with buffer 3 times and incubated with a medium containing 10 mM LiCl for 20 min; 0.1 µM Ang II or 1 µM ligands were added and incubation was continued for another 30 min at 37 °C. After incubation, the medium was removed, and total soluble IP was extracted from the cells using the perchloric acid extraction method, as described previously. Cells were plated at a field density of 5 × 10^3 cells/cm^2 in 60 mm dishes and cultured in a fresh growth medium at 37 °C in a DMEM 5% CO2 incubator. […] The culture medium was changed 48 h after transfection and 1.5 mL of 1 μCi/mL of [^3H]-myoinositol was added to each 60-mm dish at 37 °C in DMEM containing 10% FBS. After labeling, the cells were washed with buffer 3 times and incubated with a medium containing 10 mM LiCl for 20 min. The indicated concentration of ligands was added and incubation was continued for an additional 30 min at 37 °C. After incubation, the medium was removed, and total soluble IP was extracted from the cells using the perchloric acid extraction method. Total IP production was expressed as the sum of radioactivity, as described previously.

Experiment [3] concerns the target T2, AT1 wild-type receptor (Rattus norvegicus, UniProt P25095).
T2 construct: expressed in transfected cells; host or cells: COS7
T2 sequence (P25095 1-359): T1 sequence (P25095 1-359 Q257A) with A257Q
Put plainly: Immunoblotting of ERK 1/2 activation in COS7 cells overexpressing AT1 wild-type receptor. Type of experiment: cell-based. The settings on record: AT1 wild-type receptor, COS7 cells; 1 µM ligands or 0.1 µM Ang II, 10 min; n = 5; vs. (-). The protocol: as §1
(§3) In in vitro studies, ERK 1/2 activation by 1 µM ligands or 0.1 µM Ang II incubated for 10 min was measured using COS7 cells that overexpressed AT1 wild-type and mutant receptors. ERK activity was measured in cells maintained for 18 h in DMEM containing 0.1% serum. At the end of the stimulation, the culture medium was removed by aspiration, the cells were washed with ice-cold phosphate-buffered saline, and the dishes were frozen in liquid nitrogen. The cells were scraped using a scraper after melting, and the scraped cells were transferred to a tube. We homogenized the cells in lysis buffer plus protease inhibitors and determined the protein concentration using the bicinchoninic acid method. […] We fractionated total proteins using sodium dodecyl sulfate polyacrylamide gel electrophoresis; we then transferred the proteins to a Hybond nitrocellulose membrane and blocked the blotted membranes with 10% bovine serum albumin in tris-buffered saline buffer (50 mM Tris–HCl pH 7.6, 150 mM NaCl) for 1 h at room temperature. […] An enhanced chemiluminescent substrate system (Amersham, Buckinghamshire, UK) was used. The signal was independently quantified by digital image analysis (ImageJ, National Institutes of Health, Bethesda, MD, USA).

The target of experiment [4] is T3, AT1 L112A receptor (Rattus norvegicus, UniProt P25095, L112A).
T3 construct: expressed in transfected cells; host or cells: COS7
T3 sequence (P25095 1-359 L112A): T1 sequence (P25095 1-359 Q257A) with L112A, A257Q
Put plainly: Immunoblotting of ERK 1/2 activation in COS7 cells overexpressing AT1-L112A receptor. It counts as cell-based. The settings on record: 1 µM ligands or 0.1 µM Ang II, 10 min, n = 5, vs. (-). As to the method:
as §1, §3

The target in experiment [5] is T3, AT1 L112A receptor. Description: IP production assay in COS7 cells expressing AT1-L112A receptor. Type of experiment: cell-based. The following applies: 1 µM ligands or 0.1 µM Ang II, 30 min, n = 5, vs. (-). As to the method: as §1, §2
The target in experiment [6] is T1, AT1 Q257A receptor. Put plainly: Immunoblotting of ERK 1/2 activation in COS7 cells overexpressing AT1-Q257A receptor. It counts as cell-based. The following applies: 1 µM ligands or 0.1 µM Ang II, 10 min, n = 5, vs. (-). As to the method:
as §1, with “Cell membranes were prepared using the nitrogen Parr bomb disruption or freeze–thaw methods.” left out
In in vitro studies, ERK 1/2 activation by 1 µM ligands or 0.1 µM Ang II incubated for 10 min was measured using COS7 cells that overexpressed AT1 wild-type and mutant receptors. ERK activity was measured in cells maintained for 18 h in DMEM containing 0.1% serum. […] We homogenized the cells in lysis buffer plus protease inhibitors and determined the protein concentration using the bicinchoninic acid method. […] The signal was independently quantified by digital image analysis (ImageJ, National Institutes of Health, Bethesda, MD, USA).

Experiment [7] has as its target T2, AT1 wild-type receptor. Description: IP production assay in COS7 cells expressing AT1 wild-type receptor. It counts as cell-based. The following applies: AT1 wild-type receptor, COS7 cells; 1 µM ligands or 0.1 µM Ang II, 30 min; n = 5; vs. (-). As to the method: as §1, §2

[Sar^1, Ile^4, Ile^8]Ang II: the “Gq-independent ERK 1/2 activation” value in experiment [1] is “still activated”. In addition, the “Gq-dependent inositol phosphate (IP) production” value with AT1 receptor is on record as “did not increase”.
For “angiotensin II [Ang II, reference compound]”, the “Effect on IP production” value on AT1 Q257A receptor [2], at AT1 L112A receptor [5] and at AT1 wild-type receptor [7] was “significantly increased IP production” in each case. For the same substance, the ERK1/2 activation entry at AT1 wild-type receptor [3], on AT1 L112A receptor [4] and at AT1 Q257A receptor [6] was “significantly activated ERK1/2” each time.
